From publication PMC11284787, “Ligand-Directed Labeling of the Adenosine A1 Receptor in Living Cells” (Journal of Medicinal Chemistry, 2024)

Experiments:
NL-hA1AR = molecular target: T1, NL-hA1AR (Homo sapiens, UniProt P30542); test: NanoBRET dissociation kinetics, NL-hA1AR HEK293T cells; assay type: binding; settings: cells prelabeled with 250 nM for 5 h, BRET monitored 60 min
T1 construct: expressed in transfected cells
T1 sequence (P30542 1-326): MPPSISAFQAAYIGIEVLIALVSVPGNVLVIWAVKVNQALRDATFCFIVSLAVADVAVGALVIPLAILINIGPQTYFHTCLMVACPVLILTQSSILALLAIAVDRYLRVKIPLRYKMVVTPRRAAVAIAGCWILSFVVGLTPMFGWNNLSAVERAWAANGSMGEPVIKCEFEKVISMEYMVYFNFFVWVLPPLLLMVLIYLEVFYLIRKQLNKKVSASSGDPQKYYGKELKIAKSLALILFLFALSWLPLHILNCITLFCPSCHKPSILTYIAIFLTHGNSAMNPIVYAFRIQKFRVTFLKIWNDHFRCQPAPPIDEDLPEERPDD
Description: Figure 3 Molecular pharmacology and biochemical characterization of 11 and 12. NanoBRET ligand-binding data were measured in HEK293 cells stably expressing the human NL-A1AR (A–C) or rat NL-A1AR (D–F). […] Data were normalized to maximal BRET signals in the absence of unlabeled competing ligands (total binding, TB). (C, F) NanoBRET dissociation kinetics experiments with 11 (SulfoCy5) performed in human and rat NL-A1AR HEK293T cells, respectively. Cells were treated with 250 nM 11 (SulfoCy5, lilac open circles) for 5 h and CA200645 (black open triangles) for 2 h. […] TS-SNAP-A1AR was purified and separated on an SDS-PAGEgel gel, and direct Cy5 fluorescence was visualized using in-gel fluorescence. […]
The small reduction in the BRET signal observed toward the end of the reads could be mostly likely ascribed to substrate (furimazine) consumption. […] To confirm covalent labeling of A1AR by 11 and 12, HEK293G cells stably expressing a Twin-Strep-SNAP-A1AR(TS-SNAP-A1R) construct were treated with 11 or 12 prior to purification, separation by sodium dodecyl sulfate-polyacrylamide gel electrophoresis (SDS-PAGE) and visualization of labeled samples by in-gel fluorescence (Figure 3G). […]
(§1) 37 °C for kinetic binding experiments. Emissions were read at 420 nm (80 nm bandpass; […]

NL-hA3AR = molecular target: T2, NL-hA3AR (Homo sapiens, UniProt P0DMS8); test: NanoBRET saturation ligand-binding assay, NL-hA3AR
T2 construct: expressed in transfected cells
T2 sequence (P0DMS8 1-318): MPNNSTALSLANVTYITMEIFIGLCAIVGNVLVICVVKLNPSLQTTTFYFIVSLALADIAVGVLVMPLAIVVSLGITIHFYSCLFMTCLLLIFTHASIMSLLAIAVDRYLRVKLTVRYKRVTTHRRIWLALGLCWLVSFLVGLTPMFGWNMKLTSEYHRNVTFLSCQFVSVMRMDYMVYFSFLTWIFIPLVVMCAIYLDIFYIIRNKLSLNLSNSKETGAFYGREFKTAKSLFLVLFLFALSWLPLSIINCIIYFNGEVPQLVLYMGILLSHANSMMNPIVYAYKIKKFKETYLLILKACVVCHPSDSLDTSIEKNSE
Description: Probes 11 and 12 were further evaluated for their ability to bind the other three adenosine receptor subtypes (NL-A2AAR, NL-A2BAR, and NL-A3AR), and their ligand-binding properties were quantified in the NanoBRET saturation and inhibition binding assays, respectively (Table 1 and Figure 4).
NanoBRET binding assay. All NanoBRET experiments were performed in white flat […]
as §1
the SulfoCy5-labelled probe. […]
nm emission by the 420 nm emission. The term “raw BRET ratio” refers to the unprocessed data as no background ratio has been subtracted. In all NanoBRET binding […]
competitive antagonist selective for the adenosine receptor under investigation […]
MRS1220 for the A3AR). HEK293T cells stably/transiently expressing Nluc-AR were […]
were incubated for 1 h at 37 °C. […]
NanoBRET saturation binding assay. Total and nonspecific saturation binding curves were fit simultaneously using the following equation:
BRET ratio = Bmax[B] + M(B) + C […]
Uninhibited specific binding = 100 ― 100 x [A]

[1] = system: nontransfected HEK293 cells; test: Confocal assessment of non-specific labelling in non-transfected HEK293T cells; assay type: cell-based, human; settings: 125 nM; cells do not express the A1AR
From the text: Having investigated the molecular pharmacology of 11 and 12 in a series of in vitro assays, we sought to apply the LD probes for studying A1AR localization and dynamics in living cells. To this end, LD probes 11 and 12 were initially used in confocal microscopy studies to test their ability to label and allow visualization of the SNAP-hA1AR in living HEK293T cells (Figure 6). […] With both probes, the fluorescence labeling colocalized with SNAP-hA1AR labeled with AF488 (Figure 6A,C top frames).
Supplementary Figures: Pharmacology
Figure S1. Fluorescence spectra of SulfoCy5-conjugated methyltetrazine in the absence or in the presence of probe 12 (PEG-TCO). “Turn-on” type reaction of tetrazine (Met-TetSulfoCy5) with PEGylated trans-cyclooctene (PEG-TCO)-labelled 12. Fluorescence excitation and emission spectra measured in HBSS with the corresponding tetrazineSulfoCy5 [100 nM] without, then with 12 (PEG-TCO) [1 µM] (allowed to react for 10 min prior detection). Exc maxima (Met-TetSulfoCy5 + PEG-TCO) = 1.80-fold increase compared to Met-TetSulfoCy5 alone; Em maxima (Met-TetSulfoCy5 + TCO) = 1.40-fold; Excitation and emission fluorescence spectra (1 nm step width) were measured were recorded on a CLARIOstar plate reader (BMG Labtech).
Figure S2. Assessment of 11 non-specific labelling performed in non-transfected live HEK293T cells. Left hand frame corresponds to SulfoCy5 channel. […]

## CCCCn1c(=O)c2[nH]c(C34CCC(C(=O)NCCNC(=O)CCNC(=O)c5ccc(OC(=O)CCCCC[N+]6=C(/C=C/C=C/C=C7/N(C)c8ccc(S(=O)(=O)O)cc8C7(C)C)C(C)(C)c7cc(S(=O)(=O)[O-])ccc76)c(F)c5)(CC3)CC4)nc2n(CCCC)c1=O [Compound 11, 1-(6-(4-((3-((2-(4-(1,3-Dibutyl-2,6-dioxo-2,3,6,7-tetrahydro-1H-purin-8-yl)bicyclo[2.2.2]octane-1-carboxamido)ethyl)amino)-3-oxopropyl)carbamoyl)-2-fluorophenoxy)-6-oxohexyl)-3,3-dimethyl-2-((1E,3E)-5-((E)-1,3,3-trimethyl-5-sulfoindolin-2-ylidene)penta-1,3-dien-1-yl)-3H-indol-1-ium-5-sulfonate]
NL-hA1AR
  change in BRET signal after addition of 10 μM DPCPX: very little change in the BRET signal
NL-hA3AR; HEK293T cells stably expressing NL-hA3AR, read-out: affinity values pKD, NL-hA3AR (converted)
  Kd: > 1000 nM
NL-hA3AR; concentrations tested 0–500 nM
  BRET signal detected at NL-A3AR: minimal BRET signal
[1]
  fluorescent signal in nontransfected HEK293 cells: did not produce any detectable fluorescent signal
